Where “and” joins values, the source holds several entries; their conditions need not be identical. Equal values may be shown once. Entries after “also recorded” stand apart in the source; their conditions may differ. Each block holds one compound with its values, some of them ahead of it.
Legend:
[1] = target: T1, CYP2A6 (Homo sapiens, UniProt P11509); assay: UV-visible spectral ligand binding assay, isolated CYP2A6; conditions: difference spectra
T1 sequence (P11509 with tags, fused parts or gaps): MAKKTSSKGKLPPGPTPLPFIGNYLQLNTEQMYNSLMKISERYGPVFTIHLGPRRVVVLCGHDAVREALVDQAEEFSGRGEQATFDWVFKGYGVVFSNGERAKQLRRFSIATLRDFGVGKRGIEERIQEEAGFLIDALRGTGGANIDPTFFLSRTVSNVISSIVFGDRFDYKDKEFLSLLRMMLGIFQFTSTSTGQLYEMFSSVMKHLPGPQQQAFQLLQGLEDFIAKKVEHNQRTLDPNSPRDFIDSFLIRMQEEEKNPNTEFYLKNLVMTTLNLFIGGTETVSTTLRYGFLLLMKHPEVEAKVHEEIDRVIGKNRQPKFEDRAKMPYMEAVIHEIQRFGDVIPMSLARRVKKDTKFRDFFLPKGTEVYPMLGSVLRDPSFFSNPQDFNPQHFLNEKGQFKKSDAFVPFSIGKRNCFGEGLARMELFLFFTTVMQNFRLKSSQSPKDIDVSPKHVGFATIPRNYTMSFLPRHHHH

[2] = target: T2, FMND/CYP2A6 (Homo sapiens, UniProt P11509); type: biochemical; conditions: coumarin metabolism to 7-hydroxycoumarin, cumene hydroperoxide, FMND/CYP2A6 vs CYP2A6
T2 sequence (P11509 with tags, fused parts or gaps): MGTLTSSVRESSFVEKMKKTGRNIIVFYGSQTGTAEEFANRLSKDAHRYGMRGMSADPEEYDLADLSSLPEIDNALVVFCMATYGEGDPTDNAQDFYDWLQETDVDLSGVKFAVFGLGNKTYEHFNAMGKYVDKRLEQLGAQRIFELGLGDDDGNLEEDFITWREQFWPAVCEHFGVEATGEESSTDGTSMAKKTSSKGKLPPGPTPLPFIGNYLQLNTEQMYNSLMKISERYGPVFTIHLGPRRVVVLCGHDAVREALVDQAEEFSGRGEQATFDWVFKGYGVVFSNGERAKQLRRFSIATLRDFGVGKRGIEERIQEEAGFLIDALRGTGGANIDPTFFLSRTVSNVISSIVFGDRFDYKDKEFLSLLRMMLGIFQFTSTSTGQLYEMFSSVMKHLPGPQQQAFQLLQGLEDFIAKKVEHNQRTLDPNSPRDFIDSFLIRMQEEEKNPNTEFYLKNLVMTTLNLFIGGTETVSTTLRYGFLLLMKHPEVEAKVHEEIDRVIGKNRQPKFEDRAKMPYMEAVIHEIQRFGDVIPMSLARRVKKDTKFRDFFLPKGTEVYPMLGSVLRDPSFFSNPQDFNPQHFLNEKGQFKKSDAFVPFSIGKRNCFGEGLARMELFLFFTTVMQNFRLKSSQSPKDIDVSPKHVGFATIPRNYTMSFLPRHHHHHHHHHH

[3] = target: T2, FMND/CYP2A6; type: binding; conditions: for spectral shift (binding mode): difference spectra, FMND/CYP2A6 fusion, FMN domain oxidized
[4] = target: T3, FMND/CYP17A1 (Homo sapiens, UniProt P05093+P16435); type: binding; conditions: for spectral shift (binding mode): difference spectra, FMND/CYP17A1 fusion, FMN domain oxidized
T3 sequence (P16435+P05093 with tags, fused parts or gaps): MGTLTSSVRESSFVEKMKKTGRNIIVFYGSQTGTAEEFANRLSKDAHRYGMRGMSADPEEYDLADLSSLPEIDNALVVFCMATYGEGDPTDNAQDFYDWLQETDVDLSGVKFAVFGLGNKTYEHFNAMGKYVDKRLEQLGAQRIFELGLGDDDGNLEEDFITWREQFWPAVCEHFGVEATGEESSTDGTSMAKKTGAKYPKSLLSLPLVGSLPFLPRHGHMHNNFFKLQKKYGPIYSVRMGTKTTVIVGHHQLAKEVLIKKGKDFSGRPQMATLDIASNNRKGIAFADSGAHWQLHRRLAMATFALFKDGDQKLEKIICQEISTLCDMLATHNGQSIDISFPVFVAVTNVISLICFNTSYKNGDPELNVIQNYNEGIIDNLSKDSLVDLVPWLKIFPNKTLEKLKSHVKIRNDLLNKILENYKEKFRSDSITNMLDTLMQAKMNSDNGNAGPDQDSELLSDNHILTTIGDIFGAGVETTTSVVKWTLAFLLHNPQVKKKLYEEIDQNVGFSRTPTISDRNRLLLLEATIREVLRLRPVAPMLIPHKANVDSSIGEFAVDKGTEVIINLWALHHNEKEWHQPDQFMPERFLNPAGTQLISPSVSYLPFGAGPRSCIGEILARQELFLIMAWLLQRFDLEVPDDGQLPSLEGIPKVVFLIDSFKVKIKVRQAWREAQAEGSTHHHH

[5] = target: T4, FMND/CYP21A2 (Homo sapiens, UniProt P08686+P16435, R103K); type: binding
T4 sequence (P16435+P08686 with tags, fused parts or gaps P08686:R103K): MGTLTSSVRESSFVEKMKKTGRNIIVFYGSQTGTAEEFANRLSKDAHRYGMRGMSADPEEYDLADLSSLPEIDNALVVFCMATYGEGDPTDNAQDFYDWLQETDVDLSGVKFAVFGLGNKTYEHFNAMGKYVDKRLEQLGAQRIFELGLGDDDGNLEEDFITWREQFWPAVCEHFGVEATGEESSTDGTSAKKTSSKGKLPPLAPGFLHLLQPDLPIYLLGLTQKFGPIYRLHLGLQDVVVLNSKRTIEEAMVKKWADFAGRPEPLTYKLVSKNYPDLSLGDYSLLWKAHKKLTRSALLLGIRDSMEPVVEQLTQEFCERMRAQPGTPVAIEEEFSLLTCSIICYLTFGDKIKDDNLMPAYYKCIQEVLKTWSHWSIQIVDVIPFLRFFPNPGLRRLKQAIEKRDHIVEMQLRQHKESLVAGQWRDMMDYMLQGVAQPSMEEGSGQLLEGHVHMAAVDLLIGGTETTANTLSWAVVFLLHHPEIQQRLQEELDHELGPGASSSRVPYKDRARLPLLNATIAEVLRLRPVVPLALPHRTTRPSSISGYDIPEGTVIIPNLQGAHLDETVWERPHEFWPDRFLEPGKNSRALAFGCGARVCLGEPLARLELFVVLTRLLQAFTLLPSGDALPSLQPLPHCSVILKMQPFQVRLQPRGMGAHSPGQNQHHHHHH

[6] = target: T5, CYP17A1 (Homo sapiens, UniProt P05093); assay: UV-visible spectral ligand binding assay, isolated CYP17A1; conditions: difference spectra
T5 sequence (P05093 with tags, fused parts or gaps): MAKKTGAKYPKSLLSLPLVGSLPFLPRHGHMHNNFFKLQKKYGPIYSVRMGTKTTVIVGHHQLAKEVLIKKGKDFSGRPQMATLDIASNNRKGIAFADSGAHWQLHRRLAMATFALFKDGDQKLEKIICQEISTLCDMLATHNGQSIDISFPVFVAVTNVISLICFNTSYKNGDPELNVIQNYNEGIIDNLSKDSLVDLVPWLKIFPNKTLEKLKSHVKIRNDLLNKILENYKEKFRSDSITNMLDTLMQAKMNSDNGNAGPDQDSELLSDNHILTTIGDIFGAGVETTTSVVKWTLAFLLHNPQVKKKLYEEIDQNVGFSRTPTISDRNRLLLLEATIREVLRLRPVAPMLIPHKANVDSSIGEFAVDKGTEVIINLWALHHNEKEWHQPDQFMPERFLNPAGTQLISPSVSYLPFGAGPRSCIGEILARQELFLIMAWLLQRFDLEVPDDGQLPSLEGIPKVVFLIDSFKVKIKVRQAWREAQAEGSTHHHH

[7] = target: T4, FMND/CYP21A2; type: biochemical; conditions: progesterone 21-hydroxylation, cumene hydroperoxide, FMND/CYP21A2 vs CYP21A2
[8] = target: T6, CYP21A2 (Homo sapiens, UniProt P08686, R103K); assay: UV-visible spectral ligand binding assay, isolated CYP21A2; conditions: difference spectra
T6 sequence (P08686 with tags, fused parts or gaps R103K limits assumed): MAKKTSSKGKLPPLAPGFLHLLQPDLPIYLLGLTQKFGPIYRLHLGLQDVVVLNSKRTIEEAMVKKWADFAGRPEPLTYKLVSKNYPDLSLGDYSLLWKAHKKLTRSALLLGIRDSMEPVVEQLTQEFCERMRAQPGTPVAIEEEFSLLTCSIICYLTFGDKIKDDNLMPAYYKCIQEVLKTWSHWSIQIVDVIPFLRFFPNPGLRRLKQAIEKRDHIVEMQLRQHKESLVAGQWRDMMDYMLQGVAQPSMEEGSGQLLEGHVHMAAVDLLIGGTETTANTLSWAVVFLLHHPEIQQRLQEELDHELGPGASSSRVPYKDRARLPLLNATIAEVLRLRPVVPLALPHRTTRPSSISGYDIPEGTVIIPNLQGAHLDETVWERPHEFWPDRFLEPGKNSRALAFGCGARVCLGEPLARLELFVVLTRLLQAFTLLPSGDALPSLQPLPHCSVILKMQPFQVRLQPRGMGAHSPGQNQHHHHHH

[9] = target: T3, FMND/CYP17A1; type: biochemical; conditions: progesterone 17α-hydroxylation, cumene hydroperoxide
[10] = target: T7, FMND/CYP3A4 (Homo sapiens, UniProt P08684); conditions: FMND/CYP3A4 compared with CYP3A4
[11] = target: T7, FMND/CYP3A4; type: biochemical; conditions: hydrocortisone metabolism to 6β-hydroxycortisol, cumene hydroperoxide, FMND/CYP3A4 vs CYP3A4
[12] = tested on: FMND/CYP2D6; type: binding, human
[13] = target: CYP2D6 (Homo sapiens, UniProt P10635); assay: UV-visible spectral ligand binding assay, isolated CYP2D6; conditions: difference spectra
[14] = FMND/CYP2A6 compared with CYP2A6
[15] = FMND/CYP17A1 compared with CYP17A1
[16] = FMND/CYP21A2 compared with CYP21A2
[17] = FMND/CYP2D6 compared with CYP2D6

spectral shift (binding mode) [1]: type I
effect on Km, in words [2]: little effect
effect on catalytic efficiency, in words [2]: decreased
change in total ligand binding by FMN domain fusion, in words [3, 14]: relatively little change
increase in the Kd value by FMN domain fusion [3, 14]: more than 2 fold
spectral shift (binding mode) [3]: type I
SMILES: O=c1ccc2ccccc2o1 [coumarin]

decrease in total / maximal absorbance change (ΔAmax) by FMN domain fusion [5, 16]: ~30%
increase in the dissociation constant by FMN domain fusion [5, 16]: 31%
SMILES: CC(=O)N1CCN(c2ccc(OCC3COC(Cn4ccnc4)(c4ccc(Cl)cc4Cl)O3)cc2)CC1 (stereo not drawn) [ketoconazole]
effect of FMN domain fusion on saturation (ΔAmax), in words [4, 15]: no significant changes; also recorded: essentially no effect

effect of FMN domain fusion on binding efficiency, in words [4, 15]: largely unchanged
effect of FMN domain fusion on saturation (ΔAmax), in words [4, 15]: increased
spectral shift (binding mode) [4]: type I
spectral shift (binding mode) [6]: type I
SMILES: CC(=O)[C@H]1CC[C@H]2[C@@H]3CC=C4C[C@@H](O)CC[C@]4(C)[C@H]3CC[C@]12C [pregnenolone]

increase in affinity by FMN domain fusion [4, 15]: 17%
increase in overall binding efficiency (ΔAmax/Kd) by FMN domain fusion [4, 15]: 38%
spectral shift (binding mode) [4]: type I
effect on catalytic efficiency, in words [7]: unchanged
increase in kcat by FMN domain fusion [7]: 17%
spectral shift (binding mode) [8]: type I
steady-state kinetics, saturation ([9]; CYP17A1 and FMND/CYP17A1): saturation could not be reached
trend of the FMN domain effect on kcat and Km, in words ([9]; FMND/CYP17A1 vs CYP17A1, poorly defined): increase kcat as well as Km
spectral shift (binding mode) [6]: type I
decrease in total / maximal absorbance change (ΔAmax) by FMN domain fusion [5, 16]: 31% and 30%
effect of FMN domain fusion on the affinity, in words [5, 16]: without substantially altering
spectral shift (binding mode) ([5]; difference spectra, FMND/CYP21A2 fusion, FMN domain oxidized): type I
SMILES: CC(=O)[C@H]1CC[C@H]2[C@@H]3CCC4=CC(=O)CC[C@]4(C)[C@H]3CC[C@]12C [progesterone]

reduction in the Kd value by FMND fusion [10]: 30%
reduction in total binding / final saturation (ΔAmax) by FMND fusion [10]: 33%
decrease in Km by addition of the FMN domain [11]: ~30%
decrease in kcat by addition of the FMN domain [11]: ~21%
SMILES: C[C@]12CCC(=O)C=C1CC[C@@H]1[C@@H]2[C@@H](O)C[C@@]2(C)[C@H]1CC[C@]2(O)C(=O)CO [hydrocortisone]

reduction in the Kd value by FMND fusion [10]: 49%
reduction in total binding / final saturation (ΔAmax) by FMND fusion [10]: 58%
SMILES: Clc1ccccc1C(c1ccccc1)(c1ccccc1)n1ccnc1 [clotrimazole]

SMILES: CC(=O)[C@@]1(O)CC[C@H]2[C@@H]3CC=C4C[C@@H](O)CC[C@]4(C)[C@H]3CC[C@@]21C [17α-hydroxypregnenolone]
decrease in Kd by FMN domain fusion [4, 15]: 12%
effect of FMN domain fusion on saturation (ΔAmax), in words [4, 15]: little effect
increase in overall binding efficiency (ΔAmax/Kd) by FMN domain fusion [4, 15]: 16%
spectral shift (binding mode) [4]: type I
spectral shift (binding mode) [6]: type I

spectral shift (binding mode) [1]: type II
increase in affinity by FMN domain fusion [12, 17]: 37%
increase in ΔAmax/Kd binding efficiency by FMN domain fusion [12, 17]: 32%
reduction in total binding at saturation by FMN domain fusion [12, 17]: 17%
change in the affinity by FMN domain fusion, in words [3, 14]: no change
decrease in total binding (ΔAmax) by FMN domain fusion [3, 14]: 30%
spectral shift (binding mode) [3]: type II
SMILES: CC[C@@H]1C(=O)OC[C@@H]1Cc1cncn1C [pilocarpine]

spectral shift (binding mode) ([12]; difference spectra, FMND/CYP2D6 fusion, FMN domain oxidized): type II
spectral shift (binding mode) [13]: type II
SMILES: CC1(C)SCCN(S(=O)(=O)c2ccc(Oc3ccncc3)cc2)[C@H]1C(=O)NO [prinomastat]

Reference: PMC10481364 (The Journal of Biological Chemistry, 2023)
